What was measured:
Assay in all cases: selective drug sensitivity score (sDSS, relative to normal bone marrow) (sDSS (score)); higher = more potent and effective on the cell line relative to normal bone marrow cells
Conditions in all cases: 72 h
MOLT-4 = test system: MOLT-4
NALM-16 = test system: NALM-16
SUP-B15 = test system: SUP-B15
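Note: ALL cell lines in 384-well plates, five doses spanning 10,000-fold, each plate scaled between vehicle and 100 µmol/L benzalkonium chloride controls, sDSS an adapted area-under-curve metric.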

| Structure (SMILES) | selective drug sensitivity score (MOLT-4) | selective drug sensitivity score (NALM-16) | selective drug sensitivity score (SUP-B15) |
| --- | --- | --- | --- |
| N#Cc1ccnc(N2C(=O)CC[C@H]2C(=O)N(c2cncc(F)c2)[C@H](C(=O)NC2CC(F)(F)C2)c2ccccc2Cl)c1 [Ivosidenib] (top concentration 10000 nM) | 0.2 | 0 | 0 |
| C/C(=C\c1csc(C)n1)[C@@H]1C[C@@H]2O[C@]2(C)CCC[C@H](C)[C@H](O)[C@@H](C)C(=O)C(C)(C)[C@@H](O)CC(=O)N1 [Ixabepilone] (top concentration 1000 nM) | 3.98 | 2.88 | 5.08 |
| Nc1cc(COc2c(Cl)cc(C[C@H](N)C(=O)O)cc2Cl)c2oc(-c3ccccc3)nc2c1 [JPH203] (top concentration 5000 nM) | 0 | 0 | 0 |
| CS(=O)(=O)CCNCc1ccc(-c2ccc3ncnc(Nc4ccc(OCc5cccc(F)c5)c(Cl)c4)c3c2)o1 [Lapatinib] (top concentration 1000 nM) | 0 | 0 | 0 |
| Oc1ccc2c(c1)CC[C@H](c1ccccc1)[C@@H]2c1ccc(OCCN2CCCC2)cc1 [Lasofoxifene] (top concentration 1000 nM) | -1.28 | -1.28 | -1.28 |
| Cc1ccc(F)c(NC(=O)Nc2ccc(-c3cccc4[nH]nc(N)c34)cc2)c1 [Linifanib] (top concentration 1000 nM) | -1.12 | -1.12 | -1.12 |
| Cc1c(F)cc(C(=O)NC2CC2)cc1-c1ccc(C(=O)NCC(C)(C)C)cn1 [Losmapimod] (top concentration 10000 nM) | -0.18 | -0.18 | 0.42 |
| CNC(=O)c1cccc2cc(Oc3ccnc4cc(OCC5(N)CC5)c(OC)cc34)ccc12 [Lucitanib] (top concentration 10000 nM) | 4.18 | -0.62 | 3.48 |
| O=C1c2c(O)ccc(O)c2C(=O)c2c(NCCNCCO)ccc(NCCNCCO)c21 [Mitoxantrone] (top concentration 1000 nM) | 8.34 | -5.06 | 15.7 |
| CC1(C)CNc2cc(NC(=O)c3cccnc3NCc3ccncc3)ccc21 [Motesanib] (top concentration 10000 nM) | -0.22 | -0.22 | -0.22 |
| CCCN(CCC)C(=O)C1=Cc2ccc(-c3ccc(C(=O)N4CCCC4)cc3)cc2N=C(N)C1 [Motolimod] (top concentration 10000 nM) | -4.08 | -4.48 | -3.58 |
| Cc1cc(-c2ncc(CC(=O)Nc3ccc(-c4cnccn4)cn3)cc2C)ccn1 [NVP-LGK974] (top concentration 10000 nM) | 3.9 | 0.7 | 3.9 |
| CC1(C)NC(=O)N(c2ccc([N+](=O)[O-])c(C(F)(F)F)c2)C1=O [Nilutamide] (top concentration 10000 nM) | -0.48 | -0.48 | -0.48 |
| CNC(=O)c1ccc2cc([C@@]3(O)CCn4cncc43)ccc2c1 [Orteronel] (top concentration 10000 nM) | 0 | 0 | 2.1 |
| C=CCc1cccc(/C=N/NC(=O)CN2CCN(Cc3ccccc3)CC2)c1O [PAC-1] (top concentration 10000 nM) | 2.58 | 3.58 | 2.08 |
| O=C(Nc1cccnc1)N1CCC(Cc2cccc(Oc3ccc(C(F)(F)F)cn3)c2)CC1 [PF-3845] (top concentration 10000 nM) | 2.36 | 0.36 | 3.16 |
| COc1cc(Br)c(Nc2nc(-c3c(C)nc4ncccn34)cs2)c(Br)c1 [PTC-209] (top concentration 10000 nM) | -0.48 | -2.38 | -0.18 |
| C=CC(=O)N1CCC(Oc2cc3c(Nc4ccc(Cl)c(Cl)c4F)ncnc3cc2OC)CC1 [Poziotinib] (top concentration 1000 nM) | -0.22 | -0.22 | 2.98 |

| Structure (SMILES) | selective drug sensitivity score (MOLT-4) | selective drug sensitivity score (NALM-16) | selective drug sensitivity score (SUP-B15) |
| --- | --- | --- | --- |
| CC[C@H](C)C(=O)O[C@H]1C[C@H](O)C=C2C=C[C@H](C)[C@H](CC[C@@H](O)C[C@@H](O)CC(=O)O)[C@H]21 [Pravastatin] (top concentration 10000 nM) | -0.66 | -0.66 | 0.04 |
| COC(=O)c1ccc([C@H]2c3[nH]c4ccccc4c3C[C@H](C(=O)OC)N2C(=O)CCl)cc1 [RSL3] (top concentration 10000 nM) | 0 | 0 | 0 |
| Cc1cnc(NC(=O)Nc2cc(Br)c(C)cc2OC[C@@H]2CNCCO2)cn1 [Rabusertib] (top concentration 1000 nM) | -0.74 | -0.74 | -0.74 |
| CCOCc1nc2c(N)nc3ccccc3c2n1CC(C)(C)O [Resiquimod] (top concentration 10000 nM) | -4.92 | -4.92 | -1.22 |
| C[C@H]1CNCCCN1S(=O)(=O)c1cccc2cncc(F)c12 [Ripasudil] (top concentration 10000 nM) | -0.22 | -0.22 | 4.88 |
| Cc1nc(C(=O)NCC(=O)O)c(O)c2ccc(Oc3ccccc3)cc12 [Roxadustat] (top concentration 10000 nM) | -1.12 | -1.12 | -1.12 |
| CN(C)C[C@@H]1CCn2cc(c3ccccc32)C2=C(C(=O)NC2=O)c2cn(c3ccccc23)CCO1 [Ruboxistaurin] (top concentration 10000 nM) | -1.24 | -3.74 | 0.06 |
| CN(CC(=O)N(Cc1ccc(C2CCCCC2)cc1)c1ccc(C(=O)O)cc1)S(=O)(=O)c1c(F)c(F)c(F)c(F)c1F [SH-4-54] (top concentration 25000 nM) | -6.04 | -5.04 | -5.94 |
| Cc1cc2c(C(=O)NC[C@H](C)c3ccccc3)c(O)c(O)cc2c(O)c1-c1c(C)cc2c(C(=O)NC[C@H](C)c3ccccc3)c(O)c(O)cc2c1O [Sabutoclax] (top concentration 25000 nM) | 9.18 | 6.78 | 16 |
| CC1=C2C[C@H]3[C@@H](CC[C@@H]4C[C@H](NS(C)(=O)=O)CC[C@@]43C)[C@@H]2CC[C@@]2(C1)O[C@@H]1C[C@H](C)CN[C@H]1[C@H]2C [Saridegib] (top concentration 10000 nM) | -0.86 | 0.04 | 0.64 |
| Cc1cc(F)c(C(=O)Nc2cccc(-c3nncn3C(C)C)n2)cc1-n1cnc(C2CC2)c1 [Selonsertib] (top concentration 1000 nM) | 0 | 0 | 0 |
| Nc1nc2cc(-c3ccc4ncc(C(=O)N5CCOCC5)n4c3)ccc2o1 [Serabelisib] (top concentration 10000 nM) | -1.54 | -1.44 | 1.26 |
| CCC(C)(C)C(=O)O[C@H]1C[C@@H](C)C=C2C=C[C@H](C)[C@H](CC[C@@H]3C[C@@H](O)CC(=O)O3)[C@H]21 [Simvastatin] (top concentration 10000 nM) | -0.72 | -0.72 | -0.72 |
| C=CCN(/C=C1/C(=O)O[C@H](COC)[C@@]2(C)C1=C(O)C(=O)C1=C2[C@H](OC(C)=O)C[C@]2(C)C(=O)CC[C@@H]12)CC=C [Sonolisib] (top concentration 10000 nM) | -0.76 | -0.56 | -0.76 |
| CC(C)n1cnc2c(NCCc3ccc(O)cc3)nc(-c3csc4ccccc34)nc21 [StemRegenin_1] (top concentration 10000 nM) | 2.5 | -1.8 | -0.2 |
| CC(C)(O)CC(=O)NCCn1ccc2ncnc(Nc3ccc(Oc4cccc(C(F)(F)F)c4)c(Cl)c3)c21 [TAK-285] (top concentration 2500 nM) | 0 | 0 | 0 |
| Nc1nc(N)c2nc(-c3cccc(O)c3)c(-c3cccc(O)c3)nc2n1 [TG100-115] (top concentration 10000 nM) | -0.4 | 0.5 | -0.3 |
| CC/C(=C(\c1ccccc1)c1ccc(OCCN(C)C)cc1)c1ccccc1 [Tamoxifen] (top concentration 10000 nM) | -0.98 | -3.18 | 3.02 |

From the supplement of paper PMC8967900
